In patent publication US20210298306A1, “PESTICIDALLY ACTIVE AZOLE-AMIDE COMPOUNDS” (SYNGENTA PARTICIPATIONS AG, priority 2018, published 2021):

Key:
[1] = system: Myzus persicae; assay: Example B6: Myzus persicae (green peach aphid), intrinsic activity, sucrose solution, 24-well; format: in vivo; conditions: 120 h, test rate 12 ppm, 5 days after infestation
Excerpt: Example B6: Myzus persicae (Green Peach Aphid). Intrinsic Activity
Test compounds prepared from 10,000 ppm DMSO stock solutions were applied by pipette into 24-well microtiter plates and mixed with sucrose solution. The plates were closed with a stretched Parafilm. A plastic stencil with 24 holes was placed onto the plate and infested pea seedlings were placed directly on the Parafilm. The infested plate was closed with a gel blotting paper and another plastic stencil and then turned upside down. The samples were assessed for mortality 5 days after infestation.

[2] = system: Chilo suppressalis; assay: Example B3: Chilo suppressalis (striped rice stemborer), artificial diet, L2 larvae; format: in vivo; conditions: 144 h, application rate 200 ppm, 6 days after infestation, read-out: control in at least one of the categories (mortality, anti-feedant effect, or growth inhibition)
Experimental: Example B3: Chilo suppressalis (Striped Rice Stemborer)
24-well microtiter plates with artificial diet were treated with aqueous test solutions prepared from 10,000 ppm DMSO stock solutions by pipetting. After drying, the plates were infested with L2 larvae (6-8 per well). The samples were assessed for mortality, anti-feeding effect, and growth inhibition in comparison to untreated samples 6 days after infestation. Control of Chilo suppressalis by a test sample is given when at least one of the categories mortality, anti-feedant effect, and growth inhibition is higher than the untreated sample.

[3] = system: Euschistus heros; assay: Example B2: Euschistus heros (neotropical brown stink bug), soybean leaves sprayed, N2 nymphs; format: in vivo; conditions: 120 h, application rate 200 ppm, 5 days after infestation, read-out: effect in at least one of the two categories (mortality or growth inhibition)
Experimental: Example B2: Euschistus heros (Neotropical Brown Stink Bug)
Soybean leaves on agar in 24-well microtiter plates were sprayed with aqueous test solutions prepared from 10,000 ppm DMSO stock solutions. After drying the leaves were infested with N2 nymphs. The samples were assessed for mortality and growth inhibition in comparison to untreated samples 5 days after infestation.
(§1) The following compounds gave an effect of at least 80% in at least one of the two categories (mortality or growth inhibition) at an application rate of 200 ppm: […]

[4] = system: Spodoptera littoralis; assay: Example B7: Spodoptera littoralis (Egyptian cotton leaf worm), cotton leaf discs sprayed, L1 larvae; format: in vivo; conditions: foliar, 72 h, application rate 200 ppm, 3 days after infestation, read-out: control in at least one of the categories (mortality, anti-feedant effect, or growth inhibition)
Experimental: Example B7: Spodoptera littoralis (Egyptian Cotton Leaf Worm)
Cotton leaf discs were placed onto agar in 24-well microtiter plates and sprayed with aqueous test solutions prepared from 10,000 ppm DMSO stock solutions. After drying the leaf discs were infested with five L1 larvae. The samples were assessed for mortality, anti-feeding effect, and growth inhibition in comparison to untreated samples 3 days after infestation. Control of Spodoptera littoralis by a test sample is given when at least one of the categories mortality, anti-feedant effect, and growth inhibition is higher than the untreated sample.

[5] = system: Plutella xylostella; assay: Example B11: Plutella xylostella (diamondback moth), artificial diet, 96-well, eggs; format: in vivo; conditions: 216 h, application rate 500 ppm, 9 days after infestation
Experimental: Example B11: Plutella xylostella (Diamondback Moth)
96-well microtiter plates containing artificial diet were treated with aqueous test solutions, prepared from 10,000 ppm DMSO stock solutions, by a liquid handling robot. After drying, eggs (˜30 per well) were infested onto a netted lid which was suspended above the diet. The eggs hatch and L1 larvae move down to the diet. The samples were assessed for mortality 9 days after infestation.
The following compounds gave an effect of at least 80% average mortality at an application rate of 500 ppm: […]

[6] = system: Myzus persicae; assay: Example B10: Myzus persicae (green peach aphid), sucrose solution, 96-well; format: in vivo; conditions: 120 h, application rate 50 ppm, 5 days after infestation
Excerpt: Example B10: Myzus persicae (Green Peach Aphid)
Test compounds prepared from 10,000 ppm DMSO stock solutions were applied by a liquid handling robot into 96-well microtiter plates and mixed with a sucrose solution. Parafilm was stretched over the 96-well microtiter plate and a plastic stencil with 96 holes was placed onto the plate. Aphids were sieved into the wells directly onto the Parafilm. The infested plates were closed with a gel blotting card and a second plastic stencil and then turned upside down. The samples were assessed for mortality 5 days after infestation.

[7] = system: Plutella xylostella; assay: Example B4: Plutella xylostella (diamond back moth), artificial diet, 24-well, eggs; format: in vivo; conditions: 192 h, application rate 200 ppm, 8 days after infestation, read-out: effect in at least one of the two categories (mortality or growth inhibition)
Experimental: Example B4: Plutella xylostella (Diamond Back Moth)
24-well microtiter plates with artificial diet were treated with aqueous test solutions prepared from 10,000 ppm DMSO stock solutions by pipetting. After drying, Plutella eggs were pipetted through a plastic stencil onto a gel blotting paper and the plate was closed with it. The samples were assessed for mortality and growth inhibition in comparison to untreated samples 8 days after infestation.
as §1

[8] = system: Myzus persicae; assay: Example B5: Myzus persicae (green peach aphid), feeding/contact activity, sunflower leaf discs; format: in vivo; conditions: foliar, 144 h, application rate 200 ppm, 6 days after infestation, Myzus persicae mixed ages
Experimental: Example B5: Myzus persicae (Green Peach Aphid):Feeding/Contact Activity
(§2) Sunflower leaf discs were placed onto agar in a 24-well microtiter plate and sprayed with aqueous test solutions prepared from 10,000 ppm DMSO stock solutions. After drying, the leaf discs were infested with an aphid population of mixed ages. The samples were assessed for mortality 6 days after infestation.

[9] = system: Diabrotica balteata; assay: Example B1: Diabrotica balteata (corn root worm), maize sprouts sprayed, L2 larvae; format: in vivo; conditions: 96 h, application rate 200 ppm, 4 days after infestation, read-out: effect in at least one of the two categories (mortality or growth inhibition)
Experimental: Example B1: Diabrotica Balteata (Corn Root Worm)
Maize sprouts placed onto an agar layer in 24-well microtiter plates were treated with aqueous test solutions prepared from 10,000 ppm DMSO stock solutions by spraying. After drying, the plates were infested with L2 larvae (6 to 10 per well). The samples were assessed for mortality and growth inhibition in comparison to untreated samples 4 days after infestation.
as §1

[10] = system: Spodoptera littoralis; assay: Example B8: Spodoptera littoralis (Egyptian cotton leaf worm), uptake by lettuce roots from agar, eggs; format: in vivo; conditions: 144 h, test rate 12.5 ppm, 6 days after infestation, lettuce root uptake, read-out: effect in at least one of the three categories (mortality, anti-feeding, or growth inhibition)
Excerpt: Example B8: Spodoptera littoralis (Egyptian Cotton Leaf Worm)
Test compounds were applied by pipette from 10,000 ppm DMSO stock solutions into 24-well plates and mixed with agar. Lettuce seeds were placed onto the agar and the multi well plate was closed by another plate which contained also agar. After 7 days the compound was absorbed by the roots and the lettuce grew into the lid plate. The lettuce leaves were then cut off into the lid plate. Spodoptera eggs were pipetted through a plastic stencil onto a humid gel blotting paper and the lid plate was closed with it. The samples were assessed for mortality, anti-feedant effect and growth inhibition in comparison to untreated samples 6 days after infestation.
The following compounds gave an effect of at least 80% in at least one of the three categories (mortality, anti-feeding, or growth inhibition) at a test rate of 12.5 ppm: […]

[11] = system: Thrips tabaci; assay: Example B9: Thrips tabaci (onion thrips), feeding/contact activity, sunflower leaf discs; format: in vivo; conditions: foliar, 144 h; application rate 200 ppm; 6 days after infestation; Thrips tabaci mixed ages
Experimental: Example B9: Thrips tabaci (Onion Thrips) Feeding/Contact Activity
as §2, with “on” for “onto”, “in” for “in a”, “plates” for “plate”, “drying” for “drying,”, “a thrips” for “an aphid”

Row | melting point [°C] | SMILES | mortality at 12 ppm [1] [%] | percent control (mortality, anti-feedant effect or growth inhibition) at 200 ppm [2] [%] | percent effect (mortality or growth inhibition) at 200 ppm [3] [%] | percent control (mortality, anti-feedant effect or growth inhibition) at 200 ppm [4] [%] | mortality at 500 ppm [5] [%] | mortality at 50 ppm [6] [%] | percent effect (mortality or growth inhibition) at 200 ppm [7] [%] | mortality at 200 ppm [8] [%] | percent effect (mortality or growth inhibition) at 200 ppm [9] [%] | percent effect (mortality, anti-feeding or growth inhibition) at 12.5 ppm [10] [%] | mortality at 200 ppm [11] [%]
1 | – | CC(NC(=O)c1cc(OCC(F)F)cc(C(F)(F)F)c1)c1ncnn1-c1ncccn1 (centres unmarked) [P20, 3-(2,2-difluoroethoxy)-N-[1-(2-pyrimidin-2-yl-1,2,4-triazol-3-yl)ethyl]-5-(trifluoromethyl) benzamide] | ≥ 80 | ≥ 80 | ≥ 80 | ≥ 80 | ≥ 80 | ≥ 80 | ≥ 80 | ≥ 80 | – | – | –
2 | – | CC(c1ncnn1-c1ncccn1)N(CC1CC1)C(=O)c1cc(OC(F)F)cc(C(F)(F)F)c1 (centres unmarked) [P2, N-(cyclopropylmethyl)-3-(difluoromethoxy)-N-[1-(2-pyrimidin-2-yl-1,2,4-triazol-3-yl)ethyl]-5-(trifluoromethyl) benzamide] | ≥ 80 | ≥ 80 | ≥ 80 | ≥ 80 | – | – | ≥ 80 | ≥ 80 | ≥ 80 | ≥ 80 | ≥ 80
3 | – | CC(c1ncnn1-c1ncccn1)N(CC1CC1)C(=O)c1cc(SC(F)F)cc(C(F)(F)F)c1 (centres unmarked) [P18, N-(cyclopropylmethyl)-3-(difluoromethylsulfanyl)-N-[1-(2-pyrimidin-2-yl-1,2,4-triazol-3-yl)ethyl]-5-(trifluoromethyl) benzamide] | ≥ 80 | – | ≥ 80 | – | ≥ 80 | ≥ 80 | ≥ 80 | ≥ 80 | ≥ 80 | – | ≥ 80
4 | 105 to 110 | CC(NC(=O)c1cncc(OC(F)F)c1)c1ncnn1-c1ccccn1 (centres unmarked) [P23, 5-(difluoromethoxy)-N-[1-[2-(2-pyridyl)-1,2,4-triazol-3-yl]ethyl]pyridine-3-carboxamide] | – | – | – | – | – | – | – | – | – | – | –
5 | – | CC(c1ncnn1-c1ncccn1)N(CC1CC1)C(=O)c1cc(OC(F)(F)F)cc(C(F)(F)F)c1 (centres unmarked) [P4, N-(cyclopropylmethyl)-N-[1-(2-pyrimidin-2-yl-1,2,4-triazol-3-yl)ethyl]-3-(trifluoromethoxy)-5-(trifluoromethyl) benzamide] | ≥ 80 | ≥ 80 | ≥ 80 | ≥ 80 | – | – | ≥ 80 | ≥ 80 | ≥ 80 | – | –
6 | – | CC(c1ncnn1-c1ncccn1)N(CC1CC1)C(=O)c1cc(SC(F)(F)F)cc(C(F)(F)F)c1 (centres unmarked) [P5, N-(cyclopropylmethyl)-N-[1-(2-pyrimidin-2-yl-1,2,4-triazol-3-yl)ethyl]-3-(trifluoromethyl)-5-(trifluoromethylsulfanyl) benzamide] | ≥ 80 | ≥ 80 | ≥ 80 | ≥ 80 | – | – | ≥ 80 | – | ≥ 80 | ≥ 80 | ≥ 80
7 | – | CC(NC(=O)c1cc(OC(F)(F)F)cc(C(F)(F)F)c1)c1ncnn1-c1ncccn1 (centres unmarked) [P19, N-[1-(2-pyrimidin-2-yl-1,2,4-triazol-3-yl)ethyl]-3-(trifluoromethoxy)-5-(trifluoromethyl) benzamide] | ≥ 80 | ≥ 80 | ≥ 80 | ≥ 80 | ≥ 80 | ≥ 80 | ≥ 80 | ≥ 80 | ≥ 80 | – | –
8 | – | CC(NC(=O)c1cc(OCC(F)(F)F)cc(C(F)(F)F)c1)c1ncnn1-c1ncccc1F (centres unmarked) [P14, N-[1-[2-(3-fluoro-2-pyridyl)-1,2,4-triazol-3-yl]ethyl]-3-(2,2,2-trifluoroethoxy)-5-(trifluoromethyl) benzamide] | – | – | ≥ 80 | ≥ 80 | ≥ 80 | ≥ 80 | ≥ 80 | – | ≥ 80 | – | –
